# “And” between values parts separate entries of the source, which are not always exact repeats. Identical values can stand only once. “Also recorded” adds a separate entry of the source. No end group written: not given here. fluorescein = fluorescein label on the N-terminus
# T1: NOR1 (Homo sapiens, UniProt Q92570)
# T1 construct: NOR1 (isoform alpha; uniprot entry: hNOR1–Q92570-1, residues 393–626); expressed in transfected cells; host or cells: HEK293T
# T1 sequence (Q92570 393-626): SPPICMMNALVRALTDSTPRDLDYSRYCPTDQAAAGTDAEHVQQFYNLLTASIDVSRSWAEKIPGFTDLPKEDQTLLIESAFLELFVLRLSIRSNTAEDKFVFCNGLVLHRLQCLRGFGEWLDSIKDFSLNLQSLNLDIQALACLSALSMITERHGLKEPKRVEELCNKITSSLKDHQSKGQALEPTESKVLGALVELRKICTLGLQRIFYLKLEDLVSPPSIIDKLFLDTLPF
# Assays:
# Nurr1 = target: T2, Nurr1 (Homo sapiens, UniProt P43354); experiment: Gal4-Nurr1 hybrid reporter gene assay in HEK293T cells; type: cell-based; settings: for Nurr1 activity 10μM (mean fold activation) / Nurr1 activity 30μM (mean fold activation): primary screen, n ≥ 2, ^# not significant vs VP16 control; for Nurr1-dependent reporter activity in primary screen (fold activation): 10 or 30 µM; for Gal4-Nurr1 maximum/minimum activation: vs 0.1% DMSO
# T2 construct: Nurr1 (uniprot entry: hNURR1–P43354, residues 360–598); expressed in transfected cells; host or cells: HEK293T
# T2 sequence (P43354 360-598): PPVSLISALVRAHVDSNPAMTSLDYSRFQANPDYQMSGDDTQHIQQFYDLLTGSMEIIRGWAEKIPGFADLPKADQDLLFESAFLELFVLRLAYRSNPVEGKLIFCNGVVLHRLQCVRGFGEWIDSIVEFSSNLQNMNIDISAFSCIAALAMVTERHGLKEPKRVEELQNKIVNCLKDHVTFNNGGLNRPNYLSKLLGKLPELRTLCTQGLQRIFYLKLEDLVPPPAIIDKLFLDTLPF
# NBRE: Nurr1 monomer = target: T3, NBRE: Nurr1 monomer (Homo sapiens, UniProt P43354); experiment: Full-length Nurr1 reporter gene assay on NBRE response element; type: cell-based
# T3 construct: the activity of full-length human Nurr1 in cellular settings; host or cells: HEK293T
# T3 sequence (P43354 whole entry): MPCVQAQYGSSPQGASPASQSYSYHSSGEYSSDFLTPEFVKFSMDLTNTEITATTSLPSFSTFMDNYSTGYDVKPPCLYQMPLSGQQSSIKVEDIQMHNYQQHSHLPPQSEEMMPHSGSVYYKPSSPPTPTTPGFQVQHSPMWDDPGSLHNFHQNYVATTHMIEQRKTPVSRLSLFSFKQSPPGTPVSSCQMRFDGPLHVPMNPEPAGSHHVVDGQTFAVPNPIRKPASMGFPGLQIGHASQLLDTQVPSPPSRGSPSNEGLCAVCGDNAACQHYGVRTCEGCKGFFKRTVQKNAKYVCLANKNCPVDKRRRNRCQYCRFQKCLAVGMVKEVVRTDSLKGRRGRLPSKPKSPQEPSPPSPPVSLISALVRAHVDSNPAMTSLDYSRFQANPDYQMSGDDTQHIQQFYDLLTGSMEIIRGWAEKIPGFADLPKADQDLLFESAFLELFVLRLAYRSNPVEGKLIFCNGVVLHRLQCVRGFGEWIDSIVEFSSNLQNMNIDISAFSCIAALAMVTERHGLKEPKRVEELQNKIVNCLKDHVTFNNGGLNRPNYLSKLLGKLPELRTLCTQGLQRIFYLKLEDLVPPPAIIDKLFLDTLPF
# NurRE: Nurr1 homodimer = target: T4, NurRE: Nurr1 homodimer (Homo sapiens, UniProt P43354); experiment: Full-length Nurr1 reporter gene assay on NurRE response element; type: cell-based; settings: mean ± SD
# T4 construct: the activity of full-length human Nurr1 in cellular settings; host or cells: HEK293T
# T4 sequence (P43354 whole entry): as above
# [1] = target: T5, DR5: Nurr1–RXRα heterodimer (Homo sapiens, UniProt P43354); experiment: Full-length Nurr1 reporter gene assay on DR5 response element; type: cell-based; settings: mean ± SD
# T5 construct: the activity of full-length human Nurr1 in cellular settings; host or cells: HEK293T
# T5 sequence (P43354 whole entry, one chain of several): as the sequence (P43354 whole entry) above
# Nurr1 LBD homodimer = target: T6, Nurr1 LBD homodimer (Homo sapiens, UniProt P43354); experiment: Nurr1 homodimerization HTRF (GFP-Nurr1 LBD vs Tb-labeled Nurr1 LBD); type: biochemical; settings: cell-free; ligand 100 µM
# T6 construct: Nurr1 (uniprot entry: P43354-1, residues 364–598); MBP-Asn10 linker (N, cleaved yes); His8-Tag (N, cleaved yes); His10-Tag (N, cleaved yes); made in house; host or cells: E. coli T7 express (with pGro7)
# T6 sequence (P43354 364-598): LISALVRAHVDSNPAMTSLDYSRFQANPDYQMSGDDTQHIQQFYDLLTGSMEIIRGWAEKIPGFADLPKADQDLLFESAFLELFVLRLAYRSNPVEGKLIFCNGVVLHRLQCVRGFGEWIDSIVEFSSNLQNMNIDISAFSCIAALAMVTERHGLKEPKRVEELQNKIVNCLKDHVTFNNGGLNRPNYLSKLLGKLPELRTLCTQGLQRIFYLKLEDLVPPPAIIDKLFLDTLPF
# Protocol: Strength and modulation of the formation of the heterodimer composed of the LBDs of Nurr1 and RXRα was investigated by titration of GFP-RXRα LBD against a fixed concentration of Nurr1 LBD. Assay solutions were prepared in HTRF assay buffer supplemented with 0.1% (w/v) CHAPS as well as 1% DMSO with test compounds at 100 µM or DMSO alone as negative control. […] Free GFP was added to keep the total GFP content stable at 4 µM throughout the entire series in order to suppress artefacts from changes in degree of diffusion enhanced FRET. Samples were equilibrated at RT for 2 h before FI520 and FI620 were recorded after excitation at 340 nm, and the HTRF signal was calculated as described above.
# Nurr1–NCoR-1 interaction = target: T7, Nurr1–NCoR-1 interaction (Homo sapiens, UniProt P43354); experiment: Nurr1–NCoR-1 interaction HTRF (GFP-Nurr1 LBD titrated against Tb-labeled NCoR-1); type: biochemical; settings: cell-free; ligand fixed at 100 µM
# T7 construct: Nurr1 (uniprot entry: P43354-1, residues 364–598); His10-Tag (N, cleaved yes); made in house; host or cells: E. coli T7 express (with pGro7)
# T7 sequence (P43354 364-598): as above
# Protocol: Since ligand concentration was fixed in this setting, interference with the HTRF system is less prone to generate potential artifacts.
# To maintain a constant GFP concentration, free GFP protein was added to the dilution series. The experiments were performed in HTRF assay buffer (150 mM KF, 25 mM HEPES pH 7.5 (KOH), 5% (w/v) Glycerol, supplemented with 0.1% (w/v) CHAPS and 5 mM DTT) with 1% DMSO in an assay volume of 20 µl. After 1 h incubation at RT, fluorescence intensities after excitation at 340 nm were recorded at 520 nm for GFP acceptor fluorescence and 620 nm for Tb-SA donor fluorescence and the HTRF signal was calculated as described above.
# Nur77 = target: T8, Nur77 (Homo sapiens, UniProt P22736); experiment: Gal4-Nur77 hybrid reporter gene assay in HEK293T cells; type: cell-based; settings: for Nur77 activity 10μM (mean fold activation) / Nur77 activity 30μM (mean fold activation): primary screen, n ≥ 2, ^# not significant vs VP16 control; for Nur77 min./max. activation: compared to 0.1% DMSO
# T8 construct: Nur77 (uniprot entry: hNUR77–P22736, residues 358–598); expressed in transfected cells; host or cells: HEK293T
# T8 sequence (P22736 358-598): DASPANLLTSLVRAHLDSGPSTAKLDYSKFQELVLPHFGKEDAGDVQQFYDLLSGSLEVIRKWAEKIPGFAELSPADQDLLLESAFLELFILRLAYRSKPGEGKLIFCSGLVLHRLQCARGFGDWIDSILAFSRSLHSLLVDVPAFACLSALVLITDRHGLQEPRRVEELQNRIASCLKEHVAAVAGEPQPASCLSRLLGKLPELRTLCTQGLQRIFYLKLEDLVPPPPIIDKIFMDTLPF
# NOR1 = target: T1, NOR1; experiment: Gal4-NOR1 hybrid reporter gene assay in HEK293T cells; type: cell-based; settings: for Nor1 activity 10μM (mean fold activation) / Nor1 activity 30μM (mean fold activation): primary screen, n ≥ 2, ^# not significant vs VP16 control; for NOR1 min./max. activation: compared to 0.1% DMSO
# Gal4-VP16 = target: T9, Gal4-VP16 (Human herpesvirus 1, UniProt P06492); type: cell-based; settings: n ≥ 4
# T9 construct: host or cells: HEK293T
# PPAR; RXRα; RARα = experiment: Selectivity profiling in Gal4 hybrid reporter gene assays outside the NR4A family; type: cell-based, human; settings: rel. activation vs reference agonists at 1 µM; n ≥ 4
# [2] = target: T10, biotinylated recombinant Nurr1 LBD (Tb-labeled through Tb-cryptate streptavidin) (human, UniProt P43354-1 364-598, biotin on the lysine residue in the Avi-Tag); experiment: AlphaScreen or HTRF; co-regulator recruitment: biotinylated Nurr1 LBD 3 nM on Tb-SA 3 nM (donor), fluorescein-labeled peptide 100 nM (acceptor); HTRF assay buffer (25 mM HEPES pH 7.5, 150 mM KF, 10% glycerol, 5 mM DTT) with 0.1% CHAPS; 1% DMSO alone or with AQ, CQ, MFA, parecoxib or oxaprozin at 100 µM (dose-response too); 2 h at RT; settings: both partners purified
# T10 construct: In the assays coupled to terbium cryptate streptavidin conjugate (Tb-SA) as FRET donor; also called Tb-labeled Nurr1 LBD; Tb-cryptate-labeled Nurr1 LBD; source: E. coli T7 express with pGro7, purified (IMAC, TEV cleavage, amylose resin, birA biotinylation, monomeric avidin, SEC); not shown: MBP, N-terminal, cleaved; His8, N-terminal, cleaved; Avi-Tag, N-terminal, kept
# [3] = full-length human Nurr1, HEK293T, mean ± SD
# [4] = full-length human Nurr1, HEK293T
# [5] = full-length human Nurr1 and RXRα overexpressed, HEK293T
Molecule,Nurr1 activity 10μM (mean fold activation) (Nurr1) [fold],Nurr1 activity 30μM (mean fold activation) (Nurr1),Nur77 activity 10μM (mean fold activation) (Nur77),Nur77 activity 30μM (mean fold activation) (Nur77),Nor1 activity 10μM (mean fold activation) (NOR1),Nor1 activity 30μM (mean fold activation) (NOR1),also measured
"CCN(CC)CCCC(C)Nc1ccnc2cc(Cl)ccc12 (stereo not drawn) [CQ, chloroquine]",,,,,,,"EC50 (Nurr1; HEK293T, mean ± SD, n≥3): 47 µM; EC50 (NBRE: Nurr1 monomer; [3]): 38 µM; EC50 (NurRE: Nurr1 homodimer; [4]): 54 µM; EC50 [1, 5]: 57 µM; Homodimerization (effect of ligand) (Nurr1 LBD homodimer): promoted homodimerization; also recorded: Promotes dimerization; NCoR-1 affinity (effect of ligand) (Nurr1–NCoR-1 interaction): promoted the Nurr1–NCoR-1 interaction; also recorded: Enhances affinity"
"Cc1ccc(Cl)c(Nc2ccccc2C(=O)O)c1Cl [MFA, Meclofenamic acid]",3.60,toxic,3.01 fold,toxic,3.92 fold,toxic,"Nurr1-dependent reporter activity in primary screen (fold activation) (Nurr1): > 1.5 fold; EC50 (Nurr1; HEK293T, mean ± SD, n≥3): 4.7 µM; Gal4-Nurr1 maximum/minimum activation (Nurr1; mean ± SD): 3.52 ± 0.05 fold; Gal4-Nurr1 maximum/minimum activation (Nurr1; mean ± SD, listed as meclofenamic acid): 3.52 ± 0.05 fold and 3.52 ± 0.07 fold; EC50 (Nur77; HEK293T, mean ± SD, n≥3): 3.9 ± 0.7 µM; Nur77 min./max. activation (Nur77; mean ± SD): 3.3 ± 0.4; EC50 (NOR1; HEK293T, mean ± SD, n≥3): 7.9 ± 0.8 µM; NOR1 min./max. activation (NOR1; mean ± SD): 5.5 ± 0.6; NBRE: Nurr1 monomer activity in words (NBRE: Nurr1 monomer; [4]): Inactive; IC50 (NurRE: Nurr1 homodimer; [4]): 5.2 µM; NurRE: Nurr1 homodimer maximum/minimum activation (NurRE: Nurr1 homodimer): 0.70 ± 0.01 fold; IC50 [1, 5]: 10.7 µM; DR5: Nurr1–RXRα heterodimer maximum/minimum activation [1]: 0.79 ± 0.01 fold; Homodimerization (effect of ligand) (Nurr1 LBD homodimer): entirely prevented homodimerization; also recorded: Decreases dimerization; NCoR-1 affinity (effect of ligand) (Nurr1–NCoR-1 interaction): markedly reduced affinity; also recorded: Decreases affinity; Control experiments on Gal4-VP16 (non-specific reporter effects) (Gal4-VP16): clearly Nurr1 mediated; Selectivity over PPAR, RXRα, RARα (PPAR; RXRα; RARα): confirmed selectivity"
CCC(=O)NS(=O)(=O)c1ccc(-c2c(-c3ccccc3)noc2C)cc1 [parecoxib],,,,,,,"IC50 (Nur77; HEK293T, mean ± SD, n≥3): 23.7 ± 0.2 µM; Nur77 min./max. activation (Nur77; mean ± SD): 0.1 ± 0.0; IC50 (NOR1; HEK293T, mean ± SD, n≥3, read-out: NOR1 IC50): 25 ± 4 µM; NOR1 min./max. activation (NOR1; mean ± SD): 0.22 ± 0.05; IC50 (NBRE: Nurr1 monomer; [3]): 15 µM; NBRE: Nurr1 monomer maximum/minimum activation (NBRE: Nurr1 monomer; mean ± SD): 0.41 ± 0.05 fold; IC50 (NurRE: Nurr1 homodimer; [4]): 21 µM; NurRE: Nurr1 homodimer maximum/minimum activation (NurRE: Nurr1 homodimer): 0.4 ± 0.1 fold; IC50 [1, 5]: 20 µM; DR5: Nurr1–RXRα heterodimer maximum/minimum activation [1]: 0.5 ± 0.1 fold; Homodimerization (effect of ligand) (Nurr1 LBD homodimer): diminished Nurr1 dimer formation; NCoR-1 affinity (effect of ligand) (Nurr1–NCoR-1 interaction): Decreases affinity; Control experiments on Gal4-VP16 (non-specific reporter effects) (Gal4-VP16): no non-specific reporter suppression"
CN1C(C(=O)Nc2ccccn2)=C(O)c2ccccc2S1(=O)=O [piroxicam],0.98,0.98 fold,1.03 fold,0.92 fold,1.05 fold,1.01 fold,
CS(=O)(=O)c1ccc(C2=C(c3ccccc3)C(=O)OC2)cc1 [rofecoxib],1.02,0.92 fold,0.93 fold,0.91 fold,0.95 fold,1.01 fold,
O=C(O)c1ccccc1O [salicylic acid],1.08,1.02 fold,1.06 fold,1.02 fold,1.01 fold,0.99 fold,
CN1C(C(=O)Nc2ccccn2)=C(O)c2sccc2S1(=O)=O [tenoxicam],1.04,0.99 fold,0.98 fold,0.98 fold,0.95 fold,0.90 fold,
CC(C(=O)O)c1ccc(C(=O)c2ccccc2)s1 (stereo not drawn) [tiaprofenic acid],1.52,1.46 fold,1.35 fold,1.38 fold,1.37 fold,1.42 fold,Nurr1-dependent reporter activity in primary screen (fold activation) (Nurr1): > 1.5 fold; Control experiments on Gal4-VP16 (non-specific reporter effects) (Gal4-VP16): non-specific activity
Cc1c(Cl)cccc1Nc1ccccc1C(=O)O [tolfenamic acid],1.18,toxic,toxic,toxic,toxic,toxic,
Cc1ccc(C(=O)c2ccc(CC(=O)O)n2C)cc1 [tolmetin],1.08,1.13 fold,1.10 fold,0.97 fold,1.08 fold,1.00 fold,
Cc1onc(-c2ccccc2)c1-c1ccc(S(N)(=O)=O)cc1 [valdecoxib],0.79,0.54 fold,0.90 fold,0.82 fold,1.05 fold,0.76 fold,"Nurr1-dependent reporter activity in primary screen (fold activation) (Nurr1): < 0.80 fold; IC50 (Nurr1; HEK293T, mean ± SD, n≥3): 13 ± 3 µM; Gal4-Nurr1 maximum/minimum activation (Nurr1; mean ± SD): 0.52 ± 0.04 fold; Control experiments on Gal4-VP16 (non-specific reporter effects) (Gal4-VP16): no non-specific reporter suppression; Selectivity over PPAR, RXRα, RARα (PPAR; RXRα; RARα): confirmed selectivity"
CC(C(=O)O)c1ccc2c(c1)CC(=O)c1ccccc1S2 (stereo not drawn) [zaltoprofen],0.97,0.94 fold,0.80 fold,0.84 fold,0.89 fold,0.84 fold,
"fluorescein-VTLTSPLLVNLLQSDISAG (also called TRBP; source: bought: ThermoFisher Scientific (Life Technologies)) [nuclear receptor co-activator 6 (NCoA6, also termed PRIPRAP250) peptide, fluorescein-labeled]",,,,,,,binding result [2]: binds
"fluorescein-HASTNMGLEAIIRKALMGKYDQW (also called NCoR-2; source: bought: ThermoFisher Scientific (Life Technologies)) [silencing mediator for retinoid and thyroid hormone receptor (SMRT) ID2 peptide, fluorescein-labeled]",,,,,,,binding result [2]: binds
fluorescein-SHQKVTLLQLLLGHKNEEN (also called RIP140L6; source: bought: ThermoFisher Scientific (Life Technologies)),,,,,,,binding result [2]: binds
"fluorescein-LPYEGSLLLKLLRAPVEEV (source: bought: ThermoFisher Scientific (Life Technologies)) [D22 peptide, fluorescein-labeled]",,,,,,,binding result [2]: binds
"fluorescein-RTHRLITLADHICQIITQDFARN (also called NCoR-1; source: bought: ThermoFisher Scientific (Life Technologies)) [nuclear receptor co-repressor (NCOR) ID1 peptide, fluorescein-labeled]",,,,,,,binding result [2]: binds

# — paper PMC9814838, “The orphan nuclear receptor Nurr1 is responsive to non-steroidal anti-inflammatory drugs” (Communications Chemistry, 2020)
